{"source": "patent US20240067685A1", "about": "“HIDDEN ANTIBIOTICS IN THE HUMAN PROTEOME” (priority 2022, published 2024)", "key": {"A. baumannii ATCC 17878": {"system": "A. baumannii ATCC 17878", "assay": "microbe, parasite or virus in culture", "conditions": "ATCC 17878", "method": "(§1) Antimicrobial activity. The antimicrobial activity of ApoB-derived encrypted peptides was assessed against a panel of skin pathogens, such as S. epidermidis ATCC 35984, S. aureus ATCC 12600, A. baumannii ATCC 17878, K. pneumoniae ATCC 700603, S. aureus MRSA (WK7-2), E. faecalis ATCC 29212 and P. aeruginosa PAO1 by using the broth microdilution method. ^20 Bacteria were grown to mid-logarithmic phase in MHB at 37° C. […] Following incubation over-night, each sample was diluted, plated on TSA, and incubated at 37° C. for 24 h to count the number of colonies. All experiments were performed in three independent replicates."}, "[1]": {"system": "K. pneumoniae ATCC 700603", "assay": "microbe, parasite or virus in culture", "conditions": "ATCC 700603", "method": "as §1"}, "S. aureus ATCC 12600": {"system": "S. aureus ATCC 12600", "assay": "microbe, parasite or virus in culture", "conditions": "ATCC 12600", "method": "as §1"}, "[2]": {"system": "S. epidermidis ATCC 35984", "assay": "microbe, parasite or virus in culture", "conditions": "ATCC 35984", "method": "as §1"}, "E. faecalis ATCC 29212": {"system": "E. faecalis ATCC 29212", "method": "as §1"}, "[3]": {"system": "P. aeruginosa wild-type PAO1", "method": "as §1"}, "S. aureus MRSA (WKZ-2)": {"system": "S. aureus MRSA (WKZ-2)", "method": "as §1"}, "in vitro [4]": {"assay": "in vitro", "assay_type": "cell-based", "conditions": "human", "method": "Cytokine-mediated immunogenicity is one potential side effect of peptide therapeutics as it can lead to cytotoxic effects and allergic responses. ^21,45 To determine whether the peptides exerted any toxic effects against eukaryotic cells and to verify their biocompatibility towards skin cell cultures, dose-response and time-course 3-(4, 5-dimethylthiazolyl-2)-2,5-diphenyltetrazolium bromide (MTT) and lactate dehydrogenase (LDH) cytotoxicity assays were performed against both human dermal fibroblasts (HDF) and human epidermoid carcinoma cell (A431) lines. Due to their cationic nature, most AMPs preferentially interact with negatively charged membranes, such as those of bacteria. […] To evaluate whether peptides exert cytostatic or cytotoxic effects through membrane damage, LDH release in culture medium was detected as a biomarker of membrane damage. ^50 Thus, human dermal fibroblasts (HDF) and human epidermoid carcinoma cells (A431) were treated with each peptide at a concentration of 10 and 20 μmol L^−1 for 72 h. No significant LDH release was detected, thus indicating no damage to eukaryotic cell membranes caused by exposure to the peptides (FIG. 7C).\nEukaryotic cell culture and cytotoxicity assays. […] Cell viability was expressed as means of the percentage values compared to control untreated cells. […]"}, "[5]": {"system": "Acinetobacter baumannii ATCC 17878", "assay_type": "cell-based", "conditions": "ATCC 17878, 16 h", "method": "(§2) Antimicrobial activity of peptides upon pre-incubation in 10% serum. The antimicrobial activity of r(P)ApoBS^Pro and (ri)-r(P)ApoBS^Pro was evaluated against four bacterial strains upon pre-incubation in 10% FBS (fetal bovine serum, Microgem Lab, Cat. 51860, Italy). All the peptides were incubated for 1 h or 16 h in serum at 37° C. (water bath) prior to MIC value determination by standard protocols. ^20 Experiments were carried out in triplicate for each peptide."}, "[6]": {"system": "Klebsiella pneumoniae ATCC 700603", "assay_type": "cell-based", "conditions": "ATCC 700603, 16 h", "method": "as §2"}, "[7]": {"system": "Staphylococcus aureus ATCC 12600", "assay_type": "cell-based", "conditions": "ATCC 12600, 16 h", "method": "as §2"}, "in vitro [8]": {"assay": "in vitro", "conditions": "25% fetal bovine serum", "method": "To determine its proteolytic stability, it was assessed whether (ri)-r(P)ApoBS^Pro was less susceptible to serum proteases compared to its parent peptide r(P)ApoBS^Pro.\nStability assay. The resistance to enzymatic degradation assay was performed according to the method described by Powell et al. ^72 Briefly, peptides at 2 mg mL^−1 were exposed to a solution of 25% fetal bovine serum in water. Aliquots were collected after 0.5, 1, 2, and 4 h and 10 μL of trifluoroacetic acid was added to them while the samples were on ice for 10 min. The enzymatic degradation of peptides was followed by reverse-phase high performance liquid chromatography coupled to mass spectrometry (RP-HPLC/ESI-MS). The percentage of remaining peptide was calculated by integrating the area under the curve related to the peptide at time point zero.\nwhere AUCX is the area under the curve of the peak related to the peptide after t h (t=0.5, 1, 2, and 4 h), and AUC0 is the area under the curve of the peak related to the peptide at the beginning of the experiment. Three independent experimental replicates were performed, as previously described. ^73"}}, "note": "No end group written: not given here."}
{"sequence": "PHVALKPGKLKFIIPSPKRPVKLLSG [r(P)ApoBS^Pro]", "values": [{"measurement": "MIC", "setting": "A. baumannii ATCC 17878", "value": 5, "unit": "µM"}, {"measurement": "MIC", "setting": "[1]", "value": 5, "unit": "µM"}, {"measurement": "MIC", "setting": "S. aureus ATCC 12600", "value": 20, "unit": "µM"}, {"measurement": "MIC", "setting": "[2]", "value": 10, "unit": "µM"}, {"measurement": "MIC", "setting": "E. faecalis ATCC 29212", "value": 20, "unit": "µM"}, {"measurement": "MIC", "setting": "[3]", "value": 10, "unit": "µM"}, {"measurement": "MIC", "setting": "S. aureus MRSA (WKZ-2)", "value": 10, "unit": "µM"}, {"measurement": "cytotoxicity at 24 h", "setting": "in vitro [4]", "value": 30, "unit": "%"}, {"measurement": "MIC upon incubation in serum", "setting": "[5]", "value": "> 80", "unit": "µM"}, {"measurement": "MIC upon incubation in serum", "setting": "[6]", "value": "> 80", "unit": "µM"}, {"measurement": "MIC upon incubation in serum", "setting": "[7]", "value": "> 80", "unit": "µM"}, {"measurement": "stability in the presence of serum", "setting": "in vitro [8]", "value": "degraded within minutes"}, {"measurement": "exposure time after which peptide degraded", "setting": "in vitro [8]; RP-HPLC/ESI-MS", "value": 30, "unit": "min"}]}
